Measurements reported in article PMC3781849 (Journal of Clinical Pharmacology, 2013).
Values joined by “and” are separate entries in the source; they are usually repeats but may differ in a detail not shown here. Equal values may be shown once. “Also recorded” adds a separate entry of the source. Read-outs that look alike come from different tables or passages of the source.

How the values were obtained:
[1] = earlier studies; cited from earlier work
[2] = for Cmax: geometric mean (%CV, n)
[3] = tested on: cells expressing all BCR-ABL mutants tested, including the T315I gatekeeper mutant; details: preclinical; includes T315I; cited from earlier work
[4] = cited from earlier work
[5] = monkeys; preclinical studies; cited from earlier work
[6] = single 45-mg oral dose of 14C-labeled ponatinib, healthy volunteers; cited from earlier work
[7] = rats; preclinical studies; cited from earlier work
[8] = Safety and tolerability in the ponatinib ± ketoconazole crossover study
[9] = bosutinib + ketoconazole 400 mg once daily; cited from earlier work
[10] = dasatinib + ketoconazole 200 mg twice daily; cited from earlier work
[11] = nilotinib + ketoconazole 400 mg once daily; cited from earlier work
[12] = ponatinib + ketoconazole vs ponatinib alone
[13] = ponatinib + ketoconazole vs ponatinib alone, from estimated mean ratio
[14] = ponatinib alone, 2 of 23 subjects
[15] = ponatinib with ketoconazole, 2 of 23 subjects

Structure (SMILES): Cc1ccc(C(=O)Nc2ccc(CN3CCNCC3)c(C(F)(F)F)c2)cc1C#Cc1cnc2cccnn12 [AP24567]
- Potency, less potent than ponatinib [1]: 4 fold

Structure (SMILES): Cc1ccc(C(=O)O)cc1C#Cc1cnc2cccnn12 [AP24600]
- Pharmacological activity [1]: pharmacologically inactive

Structure (SMILES): Cc1ccc(C(=O)Nc2ccc(CN3CCN(C)CC3)c(C(F)(F)F)c2)cc1C#Cc1cnc2cccnn12 [Ponatinib]
- AUC(0-inf) ([2]; human, in vivo, 15 mg): 0.472 µg·h/mL
- AUC(0-t) ([2]; human, in vivo, 15 mg): 0.414 µg·h/mL
- half-life ([2]; human, in vivo, 15 mg): 35.3 h
- Cmax ([2]; human, in vivo, 15 mg, Cmax, ponatinib 15 mg alone): 0.0161 µg/mL
- Tmax ([2]; human, in vivo, po, 15 mg): ~6 h
- Cmax ([2]; ponatinib 15 mg + ketoconazole 400 mg daily): 23.6 (30.7, 22) ng/mL
- Cmax ([2]; ponatinib 15 mg alone): 16.1 (36.0, 22) ng/mL
- Effect of ketoconazole on t1/2 / terminal elimination [2, 12]: not essentially affected; also recorded: did not affect
- Effect of ketoconazole on tmax [2, 12]: not affected; also recorded: did not affect
- Increase in exposure, Cmax [2, 12]: 47%
- Increase in exposure, AUC0–t [2, 13]: 70%
- Increase in exposure, AUC0–∞ [2, 13]: 78%
- Time at which mean plasma concentrations reached a maximum ([2]; single oral dose of 15 mg, independent of ketoconazole coadministration): 5 to 6 h
- Concentration sufficient to inhibit viability of cells expressing all BCR-ABL mutants tested and to suppress emergence of mutant clones [3]: 40 nM
- Steady-state trough plasma concentration ([4]; daily doses of 30 mg): > 40 nM
- Accumulation of AUC from first dose to steady-state ([4]; once-daily ponatinib 45 mg): approximately 1.5 fold
- Steady-state trough concentration, geometric mean ([4]; once-daily ponatinib 45 mg): 64 nM and 34.2 ng/mL
- Dose proportionality of exposure (Cmax and AUC) ([4]; patients, initial dose and steady-state, doses 2 to 60 mg): approximately dose-proportional
- Time of maximum plasma levels ([4]; patients, oral once-daily ponatinib, postdose): approximately 4 hours
- Elimination half-life ([4]; ponatinib 45 mg, patients): approximately 22 hours
- Relation to maximum tolerated dose ([4]; ponatinib 60 mg daily, phase 1 study): exceeded the maximum tolerated dose
- Absolute oral bioavailability [5]: 20%
- Total radioactivity recovered in feces [6]: 87%
- Total radioactivity recovered in urine [6]: 5%
- Absolute oral bioavailability [7]: 54%
- Serious AEs ([8]; both regimens): no serious AEs
- Subjects with at least one drug-related AE ([8]; both regimens): Nine
- Vital sign, ECG, physical examination findings ([8]; both regimens): No treatment-related or clinically significant vital sign, ECG, or physical examination findings
- Subjects with at least one treatment-emergent adverse event ([8]; of 23 subjects, both regimens, all mild): Eleven
- Tolerability ([8]; ponatinib 15 mg, both alone and in combination with ketoconazole): generally well tolerated
- Increased lipase (TEAE) [8, 14]: 8.7%
- Somnolence (TEAE) [8, 14]: 8.7%
- Headache (TEAE) [8, 15]: 8.7%
- Somnolence (TEAE) [8, 15]: 8.7%

Structure (SMILES): COc1cc(Nc2c(C#N)cnc3cc(OCCCN4CCN(C)CC4)c(OC)cc23)c(Cl)cc1Cl [bosutinib]
- Decrease in apparent clearance [9]: 9 fold
- Increase in AUC0–t [9]: 7.6 fold
- Increase in AUC0–∞ [9]: 8.6 fold
- Increase in Cmax [9]: 5.2 fold
- Prolongation of t1/2 [9]: 22.8 h

Structure (SMILES): Cc1nc(Nc2ncc(C(=O)Nc3c(C)cccc3Cl)s2)cc(N2CCN(CCO)CC2)n1 [dasatinib]
- Increase in AUC [10]: 4.8 fold
- Increase in Cmax [10]: 3.6 fold
- Prolongation of t1/2 [10]: 5.4 h

Structure (SMILES): Cc1cn(-c2cc(NC(=O)c3ccc(C)c(Nc4nccc(-c5cccnc5)n4)c3)cc(C(F)(F)F)c2)cn1 [nilotinib]
- Decrease in apparent clearance [11]: 2.5 fold
- Increase in AUC0–t [11]: 1.8 fold
- Increase in AUC0–∞ [11]: 3 fold
- Increase in t1/2 [11]: 17.5 h
